ChEMBL document CHEMBL1201862, “PubChem BioAssay data set” (2004)
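A five-concentration, 48-hour dose response in 96-well plates underlies each endpoint, interpolated linearly between surrounding concentrations. The concentration for 50% growth inhibition is given as GI50.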 The source made the active and inactive calls. No stated cut-off is given here; in the data, active = GI50 up to about 1.1 µM and inactive = higher.

What was measured:
Experiment in all cases: DTP human tumour cell line panel, 48 h
ACHN = system: ACHN
CAKI-1 = system: CAKI-1
OVCAR-4 = system: OVCAR-4
HCT-15 = system: HCT-15
SR = system: SR
T47D = system: T47D
SF-268 = system: SF-268
HL-60 = system: HL-60
786-0 = system: 786-0
KM12 = system: KM12
SN12C = system: SN12C
HOP-92 = system: HOP-92
UACC-257 = system: UACC-257
LOX IMVI = system: LOX IMVI
CCRF-CEM = system: CCRF-CEM
TK-10 = system: TK-10
SK-OV-3 = system: SK-OV-3
Malme-3M = system: Malme-3M
PC-3 = system: PC-3
SK-MEL-2 = system: SK-MEL-2
SF-295 = system: SF-295
HCT-116 = system: HCT-116
A498 = system: A498
RPMI-8226 = system: RPMI-8226
A549 = system: A549
SK-MEL-28 = system: SK-MEL-28
DU-145 = system: DU-145
HOP-62 = system: HOP-62
MDA-N = system: MDA-N
IGROV-1 = system: IGROV-1
M14 = system: M14
MCF7 = system: MCF7
SK-MEL-5 = system: SK-MEL-5
U-251 = system: U-251
SNB-75 = system: SNB-75
MDA-MB-435 = system: MDA-MB-435
OVCAR-8 = system: OVCAR-8
EKVX = system: EKVX
SNB-19 = system: SNB-19
MOLT-4 = system: MOLT-4
UO-31 = system: UO-31
SF-539 = system: SF-539
OVCAR-3 = system: OVCAR-3
NCI-H226 = system: NCI-H226
NCI-H460 = system: NCI-H460
COLO 205 = system: COLO 205
HCC 2998 = system: HCC 2998
NCI-H23 = system: NCI-H23
UACC-62 = system: UACC-62
SW-620 = system: SW-620
MDA-MB-231 = system: MDA-MB-231
NCI/ADR-RES = system: NCI/ADR-RES
BT-549 = system: BT-549
OVCAR-5 = system: OVCAR-5
K562 = system: K562
Hs-578T = system: Hs-578T
NCI-H522 = system: NCI-H522
HT-29 = system: HT-29
RXF 393 = system: RXF 393

S=C(N/N=C/c1ccccn1)Nc1ccc(Cl)cc1
GI50 (ACHN): 0.0455 µM (active) | GI50 (CAKI-1): < 0.0125 µM (active) | GI50 (OVCAR-4): 0.689 µM (active) | GI50 (HCT-15): 0.0398 µM | GI50 (SR): < 0.0218 µM (active) | GI50 (T47D): 0.0169 µM (active) | GI50 (SF-268): 0.05 µM (active) | GI50 (HL-60): 0.0317 µM (active) | GI50 (786-0): 0.0601 µM (active) | GI50 (KM12): 0.175 µM (active) | GI50 (SN12C): 0.32 µM (active) | GI50 (HOP-92): 0.282 µM (active) | GI50 (UACC-257): 0.04 µM (active) | GI50 (LOX IMVI): 0.06 µM (active) | GI50 (CCRF-CEM): < 0.01 µM (active) | GI50 (TK-10): 2.93 µM (inactive) | GI50 (SK-OV-3): 0.0378 µM (active) | GI50 (Malme-3M): 0.145 µM (active) | GI50 (PC-3): 0.0424 µM (active) | GI50 (SK-MEL-2): 2.14 µM (inactive) | GI50 (SF-295): 0.181 µM (active) | GI50 (HCT-116): 0.0449 µM (active) | GI50 (A498): 4.1 µM (inactive) | GI50 (RPMI-8226): 0.134 µM (active) | GI50 (A549): 0.307 µM (active) | GI50 (SK-MEL-28): 0.413 µM (active) | GI50 (DU-145): 0.126 µM (active) | GI50 (HOP-62): 0.181 µM (active) | GI50 (MDA-N): 0.933 µM (active) | GI50 (IGROV-1): 0.0933 µM (active) | GI50 (M14): 0.0347 µM (active) | GI50 (MCF7): 0.0489 µM (active) | GI50 (SK-MEL-5): 0.11 µM (active) | GI50 (U-251): 0.0528 µM (active) | GI50 (SNB-75): 0.236 µM (active) | GI50 (MDA-MB-435): 0.373 µM (active) | GI50 (OVCAR-8): 0.0333 µM (active) | GI50 (EKVX): 0.0682 µM (active) | GI50 (SNB-19): 0.483 µM (active) | GI50 (MOLT-4): < 0.01 µM (active) | GI50 (UO-31): 0.0514 µM (active) | GI50 (SF-539): 0.364 µM (active) | GI50 (OVCAR-3): < 0.01 µM (active) | GI50 (NCI-H226): 0.0845 µM (active) | GI50 (NCI-H460): 0.0635 µM (active) | GI50 (COLO 205): < 0.0175 µM (active) | GI50 (HCC 2998): 0.59 µM (active) | GI50 (NCI-H23): 0.104 µM (active) | GI50 (UACC-62): 0.114 µM (active) | GI50 (SW-620): 0.0528 µM (active) | GI50 (MDA-MB-231): 0.0542 µM (active) | GI50 (NCI/ADR-RES): 0.0366 µM (active) | GI50 (BT-549): 0.233 µM (active) | GI50 (OVCAR-5): 0.191 µM (active) | GI50 (K562): < 0.01 µM (active) | GI50 (Hs-578T): 1.85 µM (inactive) | GI50 (NCI-H522): 0.028 µM (active) | GI50 (HT-29): 0.0426 µM (active)

C(/C=N/c1ccccc1)=C(/Nc1ccccc1)C12CC3CC(CC(C3)C1)C2
GI50 (ACHN): 13.6 µM (inactive) | GI50 (CAKI-1): 15.4 µM (inactive) | GI50 (OVCAR-4): 16.3 µM (inactive) | GI50 (HCT-15): 14.1 µM | GI50 (SR): 11 µM (inactive) | GI50 (T47D): 15.3 µM (inactive) | GI50 (SF-268): 19.1 µM (inactive) | GI50 (HL-60): 12.1 µM (inactive) | GI50 (786-0): 15 µM (inactive) | GI50 (KM12): 17 µM (inactive) | GI50 (SN12C): 18.8 µM (inactive) | GI50 (RXF 393): 17.1 µM (inactive) | GI50 (HOP-92): 25.2 µM (inactive) | GI50 (UACC-257): 27.9 µM (inactive) | GI50 (LOX IMVI): 12.9 µM (inactive) | GI50 (CCRF-CEM): 2.72 µM (inactive) | GI50 (TK-10): 21.4 µM (inactive) | GI50 (SK-OV-3): 16.4 µM (inactive) | GI50 (Malme-3M): 18.5 µM (inactive) | GI50 (PC-3): 14.9 µM (inactive) | GI50 (SF-295): 16.6 µM (inactive) | GI50 (HCT-116): 13.2 µM (inactive) | GI50 (A498): 23.8 µM (inactive) | GI50 (A549): 24.1 µM (inactive) | GI50 (SK-MEL-28): 20.5 µM (inactive) | GI50 (DU-145): 19.3 µM (inactive) | GI50 (HOP-62): 19.2 µM (inactive) | GI50 (MDA-N): 13.8 µM (inactive) | GI50 (IGROV-1): 17.6 µM (inactive) | GI50 (M14): 12.7 µM (inactive) | GI50 (MCF7): 20.5 µM (inactive) | GI50 (SK-MEL-5): 14.7 µM (inactive) | GI50 (U-251): 15 µM (inactive) | GI50 (SNB-75): 20.9 µM (inactive) | GI50 (MDA-MB-435): 15.2 µM (inactive) | GI50 (OVCAR-8): 20.7 µM (inactive) | GI50 (EKVX): 20.7 µM (inactive) | GI50 (SNB-19): 17.2 µM (inactive) | GI50 (MOLT-4): 5.73 µM (inactive) | GI50 (UO-31): 15.1 µM (inactive) | GI50 (OVCAR-3): 6.85 µM (inactive) | GI50 (NCI-H226): 19.2 µM (inactive) | GI50 (NCI-H460): 23.6 µM (inactive) | GI50 (COLO 205): 15.9 µM (inactive) | GI50 (HCC 2998): 15.8 µM (inactive) | GI50 (NCI-H23): 18.3 µM (inactive) | GI50 (UACC-62): 12.1 µM (inactive) | GI50 (SW-620): 14 µM (inactive) | GI50 (MDA-MB-231): 16.3 µM (inactive) | GI50 (NCI/ADR-RES): 19.3 µM (inactive) | GI50 (BT-549): 16.6 µM (inactive) | GI50 (OVCAR-5): 15.2 µM (inactive) | GI50 (K562): 7.23 µM (inactive) | GI50 (Hs-578T): 37.5 µM (inactive) | GI50 (NCI-H522): 10.4 µM (inactive) | GI50 (HT-29): 12.6 µM (inactive)

CN1CCN2CCN(C)CCN(CC1)CC2
GI50 (ACHN): > 100 µM (inactive) | GI50 (CAKI-1): > 100 µM (inactive) | GI50 (OVCAR-4): > 100 µM (inactive) | GI50 (HCT-15): > 100 µM | GI50 (SR): > 100 µM (inactive) | GI50 (T47D): > 100 µM (inactive) | GI50 (SF-268): > 100 µM (inactive) | GI50 (HL-60): > 100 µM (inactive) | GI50 (786-0): > 100 µM (inactive) | GI50 (KM12): > 100 µM (inactive) | GI50 (SN12C): > 100 µM (inactive) | GI50 (RXF 393): > 100 µM (inactive) | GI50 (HOP-92): > 100 µM (inactive) | GI50 (UACC-257): > 100 µM (inactive) | GI50 (LOX IMVI): > 100 µM (inactive) | GI50 (CCRF-CEM): > 100 µM (inactive) | GI50 (TK-10): > 100 µM (inactive) | GI50 (SK-OV-3): > 100 µM (inactive) | GI50 (PC-3): > 100 µM (inactive) | GI50 (SK-MEL-2): > 100 µM (inactive) | GI50 (SF-295): > 100 µM (inactive) | GI50 (HCT-116): > 100 µM (inactive) | GI50 (A498): > 100 µM (inactive) | GI50 (RPMI-8226): > 100 µM (inactive) | GI50 (A549): > 100 µM (inactive) | GI50 (SK-MEL-28): > 100 µM (inactive) | GI50 (DU-145): > 100 µM (inactive) | GI50 (HOP-62): > 100 µM (inactive) | GI50 (MDA-N): > 100 µM (inactive) | GI50 (IGROV-1): > 100 µM (inactive) | GI50 (M14): > 100 µM (inactive) | GI50 (MCF7): > 100 µM (inactive) | GI50 (SK-MEL-5): > 100 µM (inactive) | GI50 (U-251): > 100 µM (inactive) | GI50 (SNB-75): > 100 µM (inactive) | GI50 (MDA-MB-435): > 100 µM (inactive) | GI50 (OVCAR-8): > 100 µM (inactive) | GI50 (EKVX): > 100 µM (inactive) | GI50 (SNB-19): > 100 µM (inactive) | GI50 (MOLT-4): > 100 µM (inactive) | GI50 (UO-31): > 100 µM (inactive) | GI50 (SF-539): > 100 µM (inactive) | GI50 (OVCAR-3): > 100 µM (inactive) | GI50 (NCI-H226): > 100 µM (inactive) | GI50 (NCI-H460): > 100 µM (inactive) | GI50 (COLO 205): > 100 µM (inactive) | GI50 (NCI-H23): > 100 µM (inactive) | GI50 (UACC-62): > 100 µM (inactive) | GI50 (SW-620): > 100 µM (inactive) | GI50 (MDA-MB-231): > 100 µM (inactive) | GI50 (NCI/ADR-RES): > 100 µM (inactive) | GI50 (BT-549): > 100 µM (inactive) | GI50 (OVCAR-5): > 100 µM (inactive) | GI50 (K562): > 100 µM (inactive) | GI50 (Hs-578T): > 100 µM (inactive) | GI50 (NCI-H522): > 100 µM (inactive) | GI50 (HT-29): > 100 µM (inactive)
